In general, pIC50 refers to the IC50 on a negative log10 scale, so that one unit is a factor of ten.

For test [1], the system named is mPTP. Put plainly: mPTP activity (Ca2+ retention) assay in isolated rat liver mitochondria. Type of test: biochemical. The following applies: examples tested by different contract research organisations, believed comparable. An outline of the steps: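 pIC50 was taken from Fluo5N fluorescence at 10 min after a 75 μM CaCl2 bolus, scaled between DMSO (0%) and 5 μM cyclosporin A (100%). Compounds, ten half-log concentrations from 30 μM to 1 nM final, sat 10 min at RT with fresh female Sprague Dawley rat liver mitochondria energized by succinate plus rotenone.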

Test [2] has as its system mPTP. The test is described as follows: mPTP activity assay in isolated rat brain mitochondria. The following applies: fluorescence at 10 min timepoint. The format is biochemical. An outline of the steps: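 Fresh brain mitochondria from female Sprague Dawley rats, digitonin-washed, in pH 7.4 mannitol/MOPS/KCl buffer with pyruvate, malate, ADP, oligomycin A and 2 μM Fluo5N. Preincubated with compounds 10 min at RT. Fluo5N fluorescence then read every 3 sec for 10 min on FLIPR Tetra.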

For test [3], the system named is mPTP. The test is described as follows: Human platelet mitochondria assay (annexin V / PS exposure by flow cytometry). The format is cell-based. The following applies: human blood platelets stimulated with thrombin/convulxin/calcium; % AnV-APC positive platelets. As to the method:
The mPTP cell based assay was performed using a transformative functional cell-(human blood platelets)-based assay by flow cytometry. Procoagulant platelets expose phosphatidylserine (PS), allowing a burst of thrombin generation that is responsible for producing an occlusive thrombus. While an increase in cytosolic Ca^2+ concentration is required for deriving platelets to become activated, a higher and more sustained increases in cytosolic Ca^2+ concentration is needed to commit some platelets to becoming procoagulant. Simulation of platelets results in the rapid influx of Ca^2+ across the platelet membrane. The Ca^2+ is then sequestered by mitochondria until the threshold for mPTP opening is reached, at which point the pore opens and the mitochondrial membrane potential is dissipated. mPTP opening and subsequent disruption in mitochondrial membrane potential leads to release of a high concentration of calcium stored in mitochondria into the platelet's cytosol (“supramaximal calcium signal” [1]) which is known to be a requisite initiating signal transduction leading to externalisation of procoagulant PS to the outer leaflet of platelets' plasma membrane. PS externalisation of stimulated platelets can be quantified in live platelets using standard annexin V (AnV) labelling by flow cytometry, enabling pharmacological characterisation of mPTP inhibitors.
Fresh human blood (9 ml) was collected from consenting donors into 3.2% sodium citrate. Acid citrate dextrose (85 mM tri-sodium citrate, 71 mM citric acid, and 111 mM D-glucose) was added (1:7 vol/vol) and platelet-rich plasma was separated by centrifugation (200 g, 10 minutes, ambient temperature, and without any brake). Platelets were pelleted by centrifugation (600 g, 10 minutes, ambient temperature) in the presence of prostaglandin E1 (100 nM) and apyrase (0.02 U/mL). Pelleted platelets were resuspended in N-2-hydroxyethylpiperazine-N′-2-ethanesulfonic acid (HEPES)-buffered saline supplemented with D-glucose (135 mM NaCl, 10 mM HEPES, 3 mM KCl, 1 mM MgCl2, 0.34 mM NaH2PO4, 5 mM D-glucose, 0.1% bovine serum albumin, pH 7.4.) and apyrase (0.02 U/mL). Platelets were rested for 30 minutes at 30° C. before treatment protocols were initiated.
Test compounds were prepared from 10 mM stocks in DMSO. Serial dilution of search test compounds stamped in duplicate into a 96 well plate using Multidrop Pico 8 Digital Dispenser. Platelets were loaded and incubated for 30 min at room temperature. Then a stimulation mix containing Thrombin (FAC: 0.5 U/ml)/Convulxin (FAC: 0.05 μg/ml)/Calcium (FAC: 2 mM) added per well except control/not stimulated wells (This is low signal control). Some wells received no treatment but DMSO vehicle control and used as high signal controls (FAC of DMSO set at 0.1% in all wells of the 96 well plate). The reaction mix incubated for 10 min at room temperature. During last 2 min of stimulation AnV-APC was added to detect surface PS exposure. Samples ten fixed and fluorescence was detected by MACSQuant X flow cytometry and 10 000 platelet events were collected. The percentage of AnV-APC positive platelets was calculated for each well. IC50 for each compound was then calculated using a standard four parameter curve fit model (GraphPad Prism).
(Flow cytometry measures light scatter and fluorescence of single cells or particles in a stream.)

For `CC(c1ccccc1)C1(CNC(=O)c2nn(C)c(=O)[nH]2)CCC1` (single isomer, unassigned) [Example 26, 1-methyl-5-oxo-N-((1-(1-phenylethyl)cyclobutyl)methyl)-4,5-dihydro-1H-1,2,4-triazole-3-carboxamide], the “mPTP Rat liver pIC50” value in test [1] worked out at 6.87. For the same compound, the “mPTP Rat brain pIC50” value in test [2] came to 7.60. In addition, the pIC50 in test [3] is 6.77.

For the compound `O=C(NCC1(Cc2ccc(F)cc2F)CC(F)C1)c1nccc(=O)[nH]1` (single isomer, unassigned) [Example 247], the “mPTP Rat liver pIC50” value in test [1] turned out to be 6.27. The “mPTP Rat brain pIC50” value in test [2] is recorded as 7.26. In addition, in test [3], the pIC50 turned out to be 6.52.

`CC(c1ccccc1)C1(CNC(=O)c2nn(C)c(=O)[nH]2)CCC1` (single isomer, unassigned) [Example 27, 1-methyl-5-oxo-N-((1-(1-phenylethyl)cyclobutyl)methyl)-4,5-dihydro-1H-1,2,4-triazole-3-carboxamide]: the “mPTP Rat liver pIC50” value in test [1] turned out to be 5.49. In test [2], the “mPTP Rat brain pIC50” value is recorded as 6.25. For the same compound, in test [3], the pIC50 is on record as 5.70.

In the case of `CC(CNC(=O)c1nccc(=O)[nH]1)(Cc1ccc(F)cc1F)C1CC1` (single isomer, unassigned) [Example 244, N-(2-cyclopropyl-3-(2,4-difluorophenyl)-2-methylpropyl)-6-oxo-1,6-dihydropyrimidine-2-carboxamide], in test [1], the “mPTP Rat liver pIC50” value is given as 6.73. Also, the “mPTP Rat brain pIC50” value in test [2] was determined as 7.53. In addition, in test [3], the pIC50 was found to be 7.14.

Consider `CC(CNC(=O)c1nccc(=O)[nH]1)(Cc1ccc(F)cc1F)C1CC1` (single isomer, unassigned) [Example 243, N-(2-cyclopropyl-3-(2,4-difluorophenyl)-2-methylpropyl)-6-oxo-1,6-dihydropyrimidine-2-carboxamide], for which the “mPTP Rat liver pIC50” value in test [1] is reported as 6.91. For the same compound, in test [2], the “mPTP Rat brain pIC50” value was 7.93. Besides, the pIC50 in test [3] amounted to 7.36.
